These results are taken from US20040002141A1, “Methods and compositions for propagating vectors containing toxic cDNAs and ion channel assay systems” (priority 2002, published 2004).

The structures appear in SMILES notation.

In one experiment the test system is UNC-105d. The note with it: García-Añoveros et al., 1998; cited from earlier work.
The next experiment concerns the target T1, αβγENaC channels (Rattus norvegicus, UniProt P37089+P37090+P37091).
T1 sequence (P37089 1-698): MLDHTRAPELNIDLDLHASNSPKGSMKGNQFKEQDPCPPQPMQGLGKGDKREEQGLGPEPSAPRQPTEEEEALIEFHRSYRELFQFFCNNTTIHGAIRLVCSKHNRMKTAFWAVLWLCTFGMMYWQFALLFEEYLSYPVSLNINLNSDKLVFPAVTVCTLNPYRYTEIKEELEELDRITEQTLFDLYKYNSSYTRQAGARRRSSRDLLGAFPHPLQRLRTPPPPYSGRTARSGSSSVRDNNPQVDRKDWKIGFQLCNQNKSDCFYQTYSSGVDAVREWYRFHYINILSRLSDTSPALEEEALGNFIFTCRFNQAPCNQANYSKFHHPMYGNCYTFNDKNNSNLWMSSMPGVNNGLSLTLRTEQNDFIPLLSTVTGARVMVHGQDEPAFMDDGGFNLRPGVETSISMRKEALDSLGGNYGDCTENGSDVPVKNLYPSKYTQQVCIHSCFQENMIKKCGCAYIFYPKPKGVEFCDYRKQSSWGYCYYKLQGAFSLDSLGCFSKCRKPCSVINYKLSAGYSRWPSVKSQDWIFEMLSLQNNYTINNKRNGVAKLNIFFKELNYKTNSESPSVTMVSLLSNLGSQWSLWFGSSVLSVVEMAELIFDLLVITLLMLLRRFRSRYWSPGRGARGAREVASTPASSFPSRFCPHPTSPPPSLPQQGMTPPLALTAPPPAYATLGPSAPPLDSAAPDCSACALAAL
T1 sequence (P37090 1-638): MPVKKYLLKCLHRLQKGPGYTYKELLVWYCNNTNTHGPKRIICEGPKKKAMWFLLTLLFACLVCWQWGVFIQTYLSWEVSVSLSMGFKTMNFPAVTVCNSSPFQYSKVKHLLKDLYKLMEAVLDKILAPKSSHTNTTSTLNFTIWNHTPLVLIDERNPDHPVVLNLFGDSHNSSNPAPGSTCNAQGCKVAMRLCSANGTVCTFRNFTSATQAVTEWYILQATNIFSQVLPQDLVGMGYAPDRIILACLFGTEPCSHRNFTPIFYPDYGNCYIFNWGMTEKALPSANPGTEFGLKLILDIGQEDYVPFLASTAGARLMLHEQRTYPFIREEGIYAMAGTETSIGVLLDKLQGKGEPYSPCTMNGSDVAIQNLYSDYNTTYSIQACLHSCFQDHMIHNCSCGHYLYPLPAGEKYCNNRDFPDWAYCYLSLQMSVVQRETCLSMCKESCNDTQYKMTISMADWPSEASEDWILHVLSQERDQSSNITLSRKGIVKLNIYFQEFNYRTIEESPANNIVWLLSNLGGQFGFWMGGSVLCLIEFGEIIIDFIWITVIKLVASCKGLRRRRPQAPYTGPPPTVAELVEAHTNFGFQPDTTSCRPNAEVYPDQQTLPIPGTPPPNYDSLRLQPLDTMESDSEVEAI
T1 sequence (P37091 1-650): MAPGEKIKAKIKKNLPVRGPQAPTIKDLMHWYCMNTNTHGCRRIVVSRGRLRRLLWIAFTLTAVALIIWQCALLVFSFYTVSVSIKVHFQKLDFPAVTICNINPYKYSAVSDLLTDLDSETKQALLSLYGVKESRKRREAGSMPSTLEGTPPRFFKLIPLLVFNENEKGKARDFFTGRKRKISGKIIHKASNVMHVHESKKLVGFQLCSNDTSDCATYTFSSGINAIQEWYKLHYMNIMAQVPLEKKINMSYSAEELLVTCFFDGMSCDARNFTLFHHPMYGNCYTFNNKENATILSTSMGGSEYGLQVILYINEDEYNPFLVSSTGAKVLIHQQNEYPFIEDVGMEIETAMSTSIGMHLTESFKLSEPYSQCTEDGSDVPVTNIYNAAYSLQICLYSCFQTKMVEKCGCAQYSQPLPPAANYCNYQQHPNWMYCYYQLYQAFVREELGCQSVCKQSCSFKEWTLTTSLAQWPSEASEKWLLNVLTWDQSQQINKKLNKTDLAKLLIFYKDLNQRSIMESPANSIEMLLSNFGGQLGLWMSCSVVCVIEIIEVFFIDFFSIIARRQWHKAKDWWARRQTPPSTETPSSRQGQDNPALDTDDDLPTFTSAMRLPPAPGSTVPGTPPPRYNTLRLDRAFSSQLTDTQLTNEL
The note with it: McNicholas and Canessa, 1997; cited from earlier work.

Experiment [1] addresses T2, MEC-4d, MEC-10d and MEC-2 (Caenorhabditis elegans, UniProt P24612+P34886, A673T/A713T).
T2 construct: Plasmids containing full-length degenerin cDNAs are toxic to standard E. coli strains; expressed in transfected cells; host or cells: Xenopus laevis oocytes injected with cRNA
The experiment is described as follows: Amiloride dose-response, two-electrode voltage clamp in Xenopus oocytes co-expressing MEC-4d, MEC-10d and MEC-2. The note with it: in the presence of MEC-10d. It is filed as cell-based. The procedure:
(§1) Oocyte Expression & Electrophysiology. Capped RNAs (“cRNAs”) were synthesized (T7 mMESSAGE mMACHINE™ kit, Ambion, Austin, Tex.), purified, and quantified spectroscopically. Xenopus laevis oocytes were harvested and injected with 10 ng of each cRNA, except for oocytes co-expressing only MEC-4d and MEC-2(114-363), which were injected with 10 ng of the former and 20 ng of the latter. Oocytes were maintained in L-15 oocyte medium containing 100 μg/mL gentamicin (Cell & Molecular Technologies, Philipsburg, N.J.) at 16-18° C.
(§2) Membrane potential and current were measured 4-10 days after cRNA injection using a two-electrode voltage clamp (Warner OC-725C) at 22-25° C. […]
(§3) Analog signals were filtered at 200 Hz and sampled at 1-2 kHz (ITC-16, Instrutech, Great Neck, N.Y.); a 60 Hz notch filter was used to minimize line noise. Average values are reported as mean±S.E.M. Curves were fit by a nonlinear least-squares method (IgorPro 4.01, Wavemetrics, Oswego, Oreg.); the standard deviation measured at each point provided the weighting function. […] Relative permeabilities were calculated from the difference in reversal potential measured in solutions containing Na^+ and each test ion using the Goldman-Hodgkin-Katz equation (Hille, 2001, In: Ion Channels of Excitable Membranes, Sinaur Associates, Inc., Sunderland, Mass.).
In general terms: In two-electrode clamp one electrode senses voltage and the other passes current.

Another experiment addresses T3, MEC-4d and MEC-2 (Caenorhabditis elegans, UniProt P24612, A713T).
T3 construct: Plasmids containing full-length degenerin cDNAs are toxic to standard E. coli strains; expressed in transfected cells; host or cells: Xenopus laevis oocytes injected with cRNA
Kind of experiment: Amiloride dose-response, two-electrode voltage clamp in Xenopus oocytes co-expressing MEC-4d and MEC-2. It is filed as cell-based. The note with it: in the absence of MEC-10d; without MEC-2(114-363). The procedure: as §1, §2, §3

T2 sequence (P34886 whole entry A673T): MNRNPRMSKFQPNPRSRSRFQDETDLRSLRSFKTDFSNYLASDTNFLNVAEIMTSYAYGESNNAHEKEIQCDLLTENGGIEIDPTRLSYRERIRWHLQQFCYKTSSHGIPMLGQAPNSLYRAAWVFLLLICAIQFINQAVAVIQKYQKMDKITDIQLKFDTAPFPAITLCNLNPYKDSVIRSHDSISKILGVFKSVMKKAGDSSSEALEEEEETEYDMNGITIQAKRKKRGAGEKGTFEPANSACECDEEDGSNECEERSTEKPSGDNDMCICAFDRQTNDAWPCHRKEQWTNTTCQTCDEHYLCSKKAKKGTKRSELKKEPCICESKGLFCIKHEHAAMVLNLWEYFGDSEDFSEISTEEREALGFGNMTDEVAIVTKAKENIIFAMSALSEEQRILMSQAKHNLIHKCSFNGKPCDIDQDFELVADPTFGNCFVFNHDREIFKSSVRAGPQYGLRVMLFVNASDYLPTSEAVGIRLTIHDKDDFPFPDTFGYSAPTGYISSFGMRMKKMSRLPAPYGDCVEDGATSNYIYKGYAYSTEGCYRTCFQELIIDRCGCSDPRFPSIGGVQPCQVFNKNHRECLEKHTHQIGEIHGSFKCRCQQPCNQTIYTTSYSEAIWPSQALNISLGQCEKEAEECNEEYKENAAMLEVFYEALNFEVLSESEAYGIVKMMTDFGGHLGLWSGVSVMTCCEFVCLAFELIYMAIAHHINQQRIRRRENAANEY
T2 sequence (P24612 whole entry A713T): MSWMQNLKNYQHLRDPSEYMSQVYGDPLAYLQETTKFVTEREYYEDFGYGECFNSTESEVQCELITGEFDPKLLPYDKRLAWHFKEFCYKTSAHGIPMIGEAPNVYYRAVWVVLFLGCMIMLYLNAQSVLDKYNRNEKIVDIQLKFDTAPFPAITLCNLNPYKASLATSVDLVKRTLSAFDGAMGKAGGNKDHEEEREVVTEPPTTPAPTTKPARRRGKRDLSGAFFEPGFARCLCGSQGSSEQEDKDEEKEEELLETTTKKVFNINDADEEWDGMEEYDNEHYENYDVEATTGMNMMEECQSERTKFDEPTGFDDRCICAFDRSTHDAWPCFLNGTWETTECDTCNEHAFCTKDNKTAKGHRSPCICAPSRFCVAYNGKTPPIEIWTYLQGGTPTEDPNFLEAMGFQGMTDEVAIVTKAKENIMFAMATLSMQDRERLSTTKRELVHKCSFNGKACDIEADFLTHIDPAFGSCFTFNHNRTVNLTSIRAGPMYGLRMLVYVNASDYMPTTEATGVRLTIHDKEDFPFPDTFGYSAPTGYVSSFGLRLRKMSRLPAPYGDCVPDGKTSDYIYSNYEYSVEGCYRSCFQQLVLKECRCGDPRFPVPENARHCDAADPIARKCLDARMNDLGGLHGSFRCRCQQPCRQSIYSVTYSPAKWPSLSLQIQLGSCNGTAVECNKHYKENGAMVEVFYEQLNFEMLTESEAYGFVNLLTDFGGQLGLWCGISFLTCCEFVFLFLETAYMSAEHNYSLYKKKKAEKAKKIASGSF
T3 sequence (Q27433 whole entry): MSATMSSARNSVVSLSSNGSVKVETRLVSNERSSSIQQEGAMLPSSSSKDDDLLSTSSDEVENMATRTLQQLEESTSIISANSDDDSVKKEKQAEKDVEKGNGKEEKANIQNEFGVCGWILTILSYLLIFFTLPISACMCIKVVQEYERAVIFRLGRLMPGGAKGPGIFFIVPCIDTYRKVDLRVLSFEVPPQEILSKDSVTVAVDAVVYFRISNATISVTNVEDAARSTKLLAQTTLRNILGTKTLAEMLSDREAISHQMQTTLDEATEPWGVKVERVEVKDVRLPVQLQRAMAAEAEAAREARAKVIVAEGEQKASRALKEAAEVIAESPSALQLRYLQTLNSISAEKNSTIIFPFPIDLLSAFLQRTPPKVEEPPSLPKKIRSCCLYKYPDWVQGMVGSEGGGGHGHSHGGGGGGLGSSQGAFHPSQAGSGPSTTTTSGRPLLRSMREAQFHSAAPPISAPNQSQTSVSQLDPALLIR
T3 sequence (P24612 whole entry A713T): as the sequence (P24612 whole entry A713T) above

On to `N=C(N)NC(=O)c1nc(Cl)c(N)nc1N` [amiloride], for which the “δ, voltage-dependence of amiloride blockade” value was 0.65-0.68 in the experiment with UNC-105d and 0.15 on αβγENaC channels. In addition, the “δ, voltage-dependence of amiloride blockade (Woodhull model fit)” value in experiment [1] came out at 0.52; on MEC-4d and MEC-2, 0.63.
